From ChEMBL document CHEMBL1201862, “PubChem BioAssay data set” (2004)
Each block holds one compound with its values, some of them ahead of it. Calls of active or inactive are those of the source. For most assays here, no stated cut-off is given here; in the data, actives have a measured IC50 and inactives only a lower limit.

Assays:
[1] = target: T1, Voltage-gated N-type calcium channel alpha-1B subunit/Amyloid beta A4 precursor protein-binding family A member 1 (Homo sapiens, UniProt Q00975+Q02410); assay type: protein assay
T1 sequence (Q00975 whole entry): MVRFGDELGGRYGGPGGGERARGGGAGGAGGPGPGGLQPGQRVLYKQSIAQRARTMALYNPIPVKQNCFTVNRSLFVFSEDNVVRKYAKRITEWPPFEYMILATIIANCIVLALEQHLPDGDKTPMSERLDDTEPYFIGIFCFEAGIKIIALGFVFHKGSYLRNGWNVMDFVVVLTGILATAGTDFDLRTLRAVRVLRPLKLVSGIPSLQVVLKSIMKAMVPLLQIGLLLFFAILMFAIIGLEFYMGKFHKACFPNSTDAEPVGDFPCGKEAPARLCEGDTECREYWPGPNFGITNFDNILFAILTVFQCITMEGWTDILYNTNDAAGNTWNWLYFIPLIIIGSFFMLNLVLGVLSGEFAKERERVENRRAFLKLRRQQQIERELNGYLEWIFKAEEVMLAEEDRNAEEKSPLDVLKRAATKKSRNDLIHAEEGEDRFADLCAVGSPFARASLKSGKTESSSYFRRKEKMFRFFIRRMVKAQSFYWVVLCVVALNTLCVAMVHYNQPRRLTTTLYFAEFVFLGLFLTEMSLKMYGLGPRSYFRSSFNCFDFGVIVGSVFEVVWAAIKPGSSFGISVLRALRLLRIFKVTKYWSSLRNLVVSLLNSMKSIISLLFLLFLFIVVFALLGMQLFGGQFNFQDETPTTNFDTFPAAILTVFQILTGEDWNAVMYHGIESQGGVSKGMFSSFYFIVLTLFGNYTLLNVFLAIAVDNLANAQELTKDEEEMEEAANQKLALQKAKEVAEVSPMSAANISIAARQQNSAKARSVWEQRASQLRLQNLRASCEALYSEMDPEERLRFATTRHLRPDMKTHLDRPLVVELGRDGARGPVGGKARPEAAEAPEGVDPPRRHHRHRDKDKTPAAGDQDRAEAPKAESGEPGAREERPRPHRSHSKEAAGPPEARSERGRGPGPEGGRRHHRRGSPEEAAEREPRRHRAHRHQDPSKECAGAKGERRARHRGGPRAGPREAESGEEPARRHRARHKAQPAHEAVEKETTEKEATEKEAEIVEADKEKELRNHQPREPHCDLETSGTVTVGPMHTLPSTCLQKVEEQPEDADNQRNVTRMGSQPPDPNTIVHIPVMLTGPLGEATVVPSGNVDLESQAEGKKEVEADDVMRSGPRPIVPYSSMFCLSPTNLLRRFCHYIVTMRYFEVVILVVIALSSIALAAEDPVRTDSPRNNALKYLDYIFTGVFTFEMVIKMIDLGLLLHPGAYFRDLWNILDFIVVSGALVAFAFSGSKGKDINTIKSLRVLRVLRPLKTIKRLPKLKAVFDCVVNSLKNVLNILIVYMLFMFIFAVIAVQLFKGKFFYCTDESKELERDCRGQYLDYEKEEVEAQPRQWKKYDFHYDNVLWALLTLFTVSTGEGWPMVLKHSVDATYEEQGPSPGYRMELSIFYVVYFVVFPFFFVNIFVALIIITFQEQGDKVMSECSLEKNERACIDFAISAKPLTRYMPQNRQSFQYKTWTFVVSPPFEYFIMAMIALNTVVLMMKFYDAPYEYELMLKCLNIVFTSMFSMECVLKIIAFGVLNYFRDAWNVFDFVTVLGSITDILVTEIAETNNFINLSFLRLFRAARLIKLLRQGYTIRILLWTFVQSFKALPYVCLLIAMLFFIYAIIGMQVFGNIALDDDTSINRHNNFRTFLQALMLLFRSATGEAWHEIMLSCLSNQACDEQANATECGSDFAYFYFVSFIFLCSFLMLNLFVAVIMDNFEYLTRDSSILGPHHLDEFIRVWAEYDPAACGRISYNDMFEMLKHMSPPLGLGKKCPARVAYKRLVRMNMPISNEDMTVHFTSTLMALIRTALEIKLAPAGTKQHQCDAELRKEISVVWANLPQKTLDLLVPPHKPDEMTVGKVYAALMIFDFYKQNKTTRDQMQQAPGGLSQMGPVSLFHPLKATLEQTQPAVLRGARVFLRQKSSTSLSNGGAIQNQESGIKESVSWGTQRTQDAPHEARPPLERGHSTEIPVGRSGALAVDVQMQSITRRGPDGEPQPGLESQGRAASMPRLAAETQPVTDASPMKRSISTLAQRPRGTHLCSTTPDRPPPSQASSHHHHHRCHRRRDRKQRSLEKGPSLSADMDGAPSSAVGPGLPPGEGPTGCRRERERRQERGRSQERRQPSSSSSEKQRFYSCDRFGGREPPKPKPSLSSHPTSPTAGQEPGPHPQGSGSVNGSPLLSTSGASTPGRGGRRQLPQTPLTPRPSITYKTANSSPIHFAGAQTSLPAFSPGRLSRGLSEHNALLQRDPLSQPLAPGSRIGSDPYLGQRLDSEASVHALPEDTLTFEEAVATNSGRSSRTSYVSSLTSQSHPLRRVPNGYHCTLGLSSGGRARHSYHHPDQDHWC
T1 sequence (Q02410 whole entry): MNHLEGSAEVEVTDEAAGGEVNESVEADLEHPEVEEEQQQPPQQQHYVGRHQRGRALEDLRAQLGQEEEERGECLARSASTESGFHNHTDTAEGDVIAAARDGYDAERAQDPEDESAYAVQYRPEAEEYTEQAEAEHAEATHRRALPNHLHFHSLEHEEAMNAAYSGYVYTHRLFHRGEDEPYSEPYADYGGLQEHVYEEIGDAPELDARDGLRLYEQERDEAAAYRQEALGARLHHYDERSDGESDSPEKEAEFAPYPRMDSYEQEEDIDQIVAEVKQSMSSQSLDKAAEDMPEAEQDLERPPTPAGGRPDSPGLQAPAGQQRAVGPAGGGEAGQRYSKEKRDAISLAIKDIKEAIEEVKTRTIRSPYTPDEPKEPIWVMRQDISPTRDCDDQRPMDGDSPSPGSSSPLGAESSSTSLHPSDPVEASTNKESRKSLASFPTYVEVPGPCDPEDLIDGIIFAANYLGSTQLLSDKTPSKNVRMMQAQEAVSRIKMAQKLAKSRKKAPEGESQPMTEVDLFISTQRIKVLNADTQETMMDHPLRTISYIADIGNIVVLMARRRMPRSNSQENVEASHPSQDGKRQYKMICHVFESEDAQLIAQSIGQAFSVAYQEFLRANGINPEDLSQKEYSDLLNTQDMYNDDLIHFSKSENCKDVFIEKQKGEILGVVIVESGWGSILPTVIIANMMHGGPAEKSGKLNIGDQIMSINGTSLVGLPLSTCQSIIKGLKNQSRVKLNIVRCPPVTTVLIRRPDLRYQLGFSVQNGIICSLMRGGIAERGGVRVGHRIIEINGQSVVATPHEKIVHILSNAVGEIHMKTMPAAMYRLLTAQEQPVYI

[2] = target: T1, Voltage-gated N-type calcium channel alpha-1B subunit/Amyloid beta A4 precursor protein-binding family A member 1; assay type: protein assay; remark: listed apart in the source
[3] = target: DNA dC->dU-editing enzyme APOBEC-3G (Homo sapiens, UniProt Q9HC16); experiment: Dose Response confirmation of small molecule APOBEC3G DNA Deaminase Inhibitors via a fluorescence-based single-stranded DNA deaminase assay. [Related pubchem assays (depositor defined):AID493012, AID493028]; assay type: functional
Sequence of DNA dC->dU-editing enzyme APOBEC-3G (Q9HC16 whole entry): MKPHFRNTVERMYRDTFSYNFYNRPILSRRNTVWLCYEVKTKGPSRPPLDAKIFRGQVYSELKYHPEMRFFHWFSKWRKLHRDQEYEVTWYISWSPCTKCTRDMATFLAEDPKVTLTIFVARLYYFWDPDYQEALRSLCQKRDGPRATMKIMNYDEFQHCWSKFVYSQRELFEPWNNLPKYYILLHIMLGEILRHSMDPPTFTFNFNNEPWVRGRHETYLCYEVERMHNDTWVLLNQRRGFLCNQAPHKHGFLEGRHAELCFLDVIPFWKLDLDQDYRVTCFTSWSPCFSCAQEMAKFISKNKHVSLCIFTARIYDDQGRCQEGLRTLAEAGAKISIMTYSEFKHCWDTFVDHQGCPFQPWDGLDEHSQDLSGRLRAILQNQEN

[4] = target: Eukaryotic translation initiation factor 4E (Mus musculus, UniProt P63073); experiment: blockers of eIF4G binding by eIF4E – biochemical, TR-FRET, dose response (AID 855); assay type: functional;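 further: potency for disrupting eIF4E binding to eIF4GI seen as loss of FRET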
Sequence of Eukaryotic translation initiation factor 4E (P63073 whole entry): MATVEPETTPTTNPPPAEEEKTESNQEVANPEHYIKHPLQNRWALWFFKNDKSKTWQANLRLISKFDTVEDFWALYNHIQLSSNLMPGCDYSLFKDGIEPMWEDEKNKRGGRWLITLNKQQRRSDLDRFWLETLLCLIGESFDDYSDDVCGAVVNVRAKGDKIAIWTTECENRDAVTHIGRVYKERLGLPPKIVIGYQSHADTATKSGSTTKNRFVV

[5] = target: Melanin-concentrating hormone receptor 1 (Homo sapiens, UniProt Q99705); experiment: Late-stage fluorescence-based counterscreen for antagonists of the G-protein coupled receptor 7 (GPR7): cell-based dose response assay to identify antagonists of the melanin-concentrating hormone receptor 1 (MCHR1). [Related pubchem assays (depositor defined):AID1861, AID1880, AID1952, AID2148, AID2251, AID2257, AID485339]; assay type: functional;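 further: stimulated with 30 nM MCH peptide agonist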
[6] = target: DNA dC->dU-editing enzyme APOBEC-3A (Homo sapiens, UniProt P31941); experiment: A3A deaminase inhibition for selectivity – biochemical, dose response (AID 504722); assay type: functional
[7] = target: Nucleotide-binding oligomerization domain-containing protein 2 (Homo sapiens, UniProt Q9HC29); experiment: PubChem AID 2334; assay type: functional
Sequence of Nucleotide-binding oligomerization domain-containing protein 2 (Q9HC29 whole entry, the tested form may be a part): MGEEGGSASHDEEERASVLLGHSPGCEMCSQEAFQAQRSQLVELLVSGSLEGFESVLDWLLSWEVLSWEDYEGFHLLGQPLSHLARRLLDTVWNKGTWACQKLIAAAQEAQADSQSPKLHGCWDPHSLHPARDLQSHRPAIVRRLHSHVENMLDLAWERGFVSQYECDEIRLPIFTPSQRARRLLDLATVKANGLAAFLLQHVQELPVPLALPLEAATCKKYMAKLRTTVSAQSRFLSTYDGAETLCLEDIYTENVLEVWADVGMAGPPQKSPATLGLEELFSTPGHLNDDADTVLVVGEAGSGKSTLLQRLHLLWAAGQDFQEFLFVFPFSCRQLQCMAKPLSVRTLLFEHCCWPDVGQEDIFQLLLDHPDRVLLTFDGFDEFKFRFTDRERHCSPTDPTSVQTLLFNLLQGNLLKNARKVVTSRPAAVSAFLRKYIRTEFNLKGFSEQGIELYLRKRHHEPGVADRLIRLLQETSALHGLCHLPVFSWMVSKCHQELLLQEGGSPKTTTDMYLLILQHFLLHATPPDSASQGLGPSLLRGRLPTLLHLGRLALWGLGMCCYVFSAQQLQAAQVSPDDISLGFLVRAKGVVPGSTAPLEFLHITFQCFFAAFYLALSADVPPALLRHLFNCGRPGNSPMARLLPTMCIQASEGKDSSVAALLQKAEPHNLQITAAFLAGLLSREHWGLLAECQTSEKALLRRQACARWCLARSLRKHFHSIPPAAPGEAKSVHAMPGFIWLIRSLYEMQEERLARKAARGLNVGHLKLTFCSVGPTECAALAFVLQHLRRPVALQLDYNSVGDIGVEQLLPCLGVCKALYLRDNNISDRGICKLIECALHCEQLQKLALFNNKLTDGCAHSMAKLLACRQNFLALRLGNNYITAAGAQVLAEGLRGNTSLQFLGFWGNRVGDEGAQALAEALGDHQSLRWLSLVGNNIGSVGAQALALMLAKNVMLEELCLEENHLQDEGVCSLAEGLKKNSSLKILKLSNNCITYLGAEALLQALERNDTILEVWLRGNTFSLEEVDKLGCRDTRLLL

[8] = target: T2, Nucleotide-binding oligomerization domain-containing protein 1 (Homo sapiens, UniProt Q9Y239); experiment: blockers of NOD1 pathway activity – revised, SAR follow-up (AID 2333); assay type: functional
T2 sequence (Q9Y239 whole entry): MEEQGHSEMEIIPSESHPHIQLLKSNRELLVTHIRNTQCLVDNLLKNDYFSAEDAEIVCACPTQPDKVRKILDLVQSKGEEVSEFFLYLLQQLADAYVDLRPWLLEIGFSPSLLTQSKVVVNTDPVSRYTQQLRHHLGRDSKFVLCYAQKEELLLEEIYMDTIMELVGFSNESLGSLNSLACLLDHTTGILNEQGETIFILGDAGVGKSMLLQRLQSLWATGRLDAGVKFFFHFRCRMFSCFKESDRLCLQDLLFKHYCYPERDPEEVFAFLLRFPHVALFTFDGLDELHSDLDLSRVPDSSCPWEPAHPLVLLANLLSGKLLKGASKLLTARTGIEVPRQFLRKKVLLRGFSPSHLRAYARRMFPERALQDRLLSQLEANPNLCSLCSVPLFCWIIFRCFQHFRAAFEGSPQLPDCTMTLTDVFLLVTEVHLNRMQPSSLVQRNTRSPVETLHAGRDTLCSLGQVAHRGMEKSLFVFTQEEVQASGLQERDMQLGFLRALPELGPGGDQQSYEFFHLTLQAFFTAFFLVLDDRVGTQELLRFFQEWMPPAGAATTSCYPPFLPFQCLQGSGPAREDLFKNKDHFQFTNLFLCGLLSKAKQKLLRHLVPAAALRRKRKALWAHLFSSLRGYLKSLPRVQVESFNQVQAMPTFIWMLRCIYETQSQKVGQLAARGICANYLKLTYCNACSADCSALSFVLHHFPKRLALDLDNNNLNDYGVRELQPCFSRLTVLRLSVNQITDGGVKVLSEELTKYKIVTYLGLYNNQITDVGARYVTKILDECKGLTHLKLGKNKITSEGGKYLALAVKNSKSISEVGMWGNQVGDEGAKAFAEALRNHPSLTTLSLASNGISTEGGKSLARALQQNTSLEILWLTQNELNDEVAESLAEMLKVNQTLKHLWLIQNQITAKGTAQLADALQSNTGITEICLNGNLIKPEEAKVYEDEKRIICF

[9] = target: Tumor necrosis factor (Homo sapiens, UniProt P01375); experiment: analog potency on TNFa NF-kB signaling – cell-based, revised, SAR follow-up (AID 2337); assay type: functional
[10] = tested on: HEK293; experiment: cells; conditions: Homo sapiens;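 further: cells exposed to compound for 14 hours overnight before viability readout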
[11] = target: G-protein coupled receptor 55 (Homo sapiens, UniProt Q9Y2T6); experiment: selective activators of receptor GPR55 – imaging, U2OS cells, beta-arrestin-GFP redistribution, primary screen (AID 1961); assay type: functional
[12] = target: Paired box protein Pax-8 (Homo sapiens, UniProt Q06710); experiment: PAX8 transcriptional activity inhibition in RMG-I – RMG-I cells, luciferase, cherry-pick, dose response (AID 687027); assay type: functional, cell-based;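 further: luciferase reporter driven by Pax8 target thyroperoxidase promoter measured by SteadyGlo luminescence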
[13] = target: Bcl-2-like protein 10 (Homo sapiens, UniProt Q9HD36); experiment: Bcl-B/TR3 peptide binding disruption – biochemical, fluorescence polarization, FITC-TR3 peptide, selectivity assay for Bfl-1 inhibitor project, primary screen (AID 748);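 further: fluorescence polarization from a fluorescein-labelled TR3 peptide binding purified Bcl-B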
Sequence of Bcl-2-like protein 10 (Q9HD36 whole entry): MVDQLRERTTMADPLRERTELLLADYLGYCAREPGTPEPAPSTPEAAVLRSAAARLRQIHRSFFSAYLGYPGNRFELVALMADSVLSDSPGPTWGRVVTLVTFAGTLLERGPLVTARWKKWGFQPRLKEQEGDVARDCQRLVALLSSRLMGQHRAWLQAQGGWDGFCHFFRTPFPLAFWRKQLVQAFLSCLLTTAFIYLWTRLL

[14] = target: Coagulation factor XII (Homo sapiens, UniProt P00748); assay type: functional;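 further: activated factor XIIa alpha cleaving a fluorogenic AMC peptide substrate; inhibitor potency from loss of enzyme activity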

SMILES: COCc1c(N)c(C)nc(Cl)c1C#N
IC50 [1]: > 50 µM (inactive)
IC50 [2]: 13.9 µM (active)
IC50 [3]: 13.3 µM (active)
IC50 [4]: 50 µM (inactive)

IC50 [5]: 7.4 µM (active)
SMILES: COc1ccc(Oc2c(CO)cnn(-c3ccc(C(C)C)cc3)c2=O)cc1

SMILES: Sc1nnc(-c2ccco2)n1-c1ccc(Br)cc1
IC50 [3]: 1.5 µM (active)
IC50 [6]: > 100 µM (inactive)

SMILES: CC(C)C(=O)Nc1nc2ccccc2n1Cc1ccc(Cl)cc1
IC50 [7]: > 20 µM (inactive)
IC50 [8]: 16.7 µM (active)
IC50 [9]: > 20 µM (inactive)
IC50 [10]: > 20 µM (inactive)

EC50 [11]: 0.625 µM (active)
AC50 [12]: 2.86 µM (active)
SMILES: CCCN(CCC)Cc1c(C(=O)N/N=C/C(C)=C\c2ccco2)nnn1-c1nonc1N

IC50 [13]: > 100 µM (inactive)
SMILES: Cc1ccc(N2CN=c3s/c(=C\c4cccnc4)c(=O)n3C2)cc1

IC50 [14]: > 50 µM (inactive)
SMILES: COc1ccc(OC)c(/C=N/Nc2cc(C)nc(N3CCOCC3)n2)c1

IC50 [13]: > 100 µM (inactive)
SMILES: c1nnnn1C12CC3CC(CC(C3)C1)C2
